According to the supplement of paper PMC10307832:

compound: Cn1c(=O)n(-c2ccc(C(C)(C)C#N)cc2)c2c3cc(-c4cnc5ccccc5c4)ccc3ncc21 [Dactolisib] + O=C(c1cc(Cc2n[nH]c(=O)c3ccccc23)ccc1F)N1CCN(C(=O)C2CC2)CC1 [Olaparib] (partner 8 µM); assay: relative viability (nuclei count vs DMSO), 5 days (fraction); higher = more cells survive; details: first compound 0.002 µM
Summary of the method: (§1)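 Lung cancer cell lines, seeded in 1536-well plates, were treated the following day by pin tool with a single drug or with five library-drug doses (not always all listed) in √10 steps on top of a fixed anchor-drug dose. Cells were fixed and nuclei stained in one step after 5 days, and nuclei were counted. Relative viability is the nuclei count for treated wells divided by that for vehicle wells, reported as medians of duplicate plates.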

| Cell Line | relative viability |
| --- | --- |
| EKVX | 0.661 |
| LC-2-ad | 0.825 |
| NCI-H1944 | 0.548 |
| NCI-H1975 | 0.778 |
| RERF-LC-KJ | 1.06 |
| ABC-1 | 0.911 |
| NCI-H358 | 0.675 |
| NCI-H650 | 0.552 |
| PC-3 [JPC-3] | 1.17 |

same assay, conditions: first compound 0.006325 µM

| Cell Line | relative viability |
| --- | --- |
| EKVX | 0.867 |
| LC-2-ad | 0.749 |
| NCI-H1944 | 0.386 |
| NCI-H1975 | 0.817 |
| RERF-LC-KJ | 0.893 |
| ABC-1 | 0.862 |
| NCI-H358 | 0.557 |
| NCI-H650 | 0.378 |
| PC-3 [JPC-3] | 1.07 |

same assay, conditions: first compound 0.02 µM

| Cell Line | relative viability |
| --- | --- |
| EKVX | 0.861 |
| LC-2-ad | 0.747 |
| NCI-H1944 | 0.397 |
| NCI-H1975 | 0.632 |
| RERF-LC-KJ | 0.829 |
| ABC-1 | 0.952 |
| NCI-H358 | 0.552 |
| NCI-H650 | 0.437 |
| PC-3 [JPC-3] | 1.21 |

same assay, conditions: first compound 0.06325 µM

| Cell Line | relative viability |
| --- | --- |
| EKVX | 0.469 |
| LC-2-ad | 0.864 |
| NCI-H1944 | 0.265 |
| NCI-H1975 | 0.302 |
| RERF-LC-KJ | 0.385 |
| ABC-1 | 1.1 |
| NCI-H358 | 0.478 |
| NCI-H650 | 0.312 |
| PC-3 [JPC-3] | 1.02 |

same assay, conditions: first compound 0.2 µM

| Cell Line | relative viability |
| --- | --- |
| EKVX | 0.331 |
| LC-2-ad | 0.852 |
| NCI-H1944 | 0.21 |
| NCI-H1975 | 0.269 |
| RERF-LC-KJ | 0.403 |
| ABC-1 | 0.613 |
| NCI-H358 | 0.169 |
| NCI-H650 | 0.195 |
| PC-3 [JPC-3] | 0.963 |

compound: Cn1c(=O)n(-c2ccc(C(C)(C)C#N)cc2)c2c3cc(-c4cnc5ccccc5c4)ccc3ncc21 [Dactolisib] + CC(=O)c1c(C)c2cnc(Nc3ccc(N4CCNCC4)cn3)nc2n(C2CCCC2)c1=O [Palbociclib] (partner 0.5 µM); assay: as above; details: first compound 0.002 µM
Summary of the method: as §1

| Cell Line | relative viability |
| --- | --- |
| EKVX | 0.431 |
| LC-2-ad | 0.434 |
| NCI-H1944 | 0.403 |
| NCI-H1975 | 0.551 |
| RERF-LC-KJ | 1.19 |
| ABC-1 | 0.651 |
| NCI-H358 | 0.141 |
| NCI-H650 | 0.387 |
| PC-3 [JPC-3] | 0.596 |

same assay, conditions: first compound 0.006325 µM

| Cell Line | relative viability |
| --- | --- |
| EKVX | 0.386 |
| LC-2-ad | 0.48 |
| NCI-H1944 | 0.334 |
| NCI-H1975 | 0.561 |
| RERF-LC-KJ | 1.12 |
| ABC-1 | 0.48 |
| NCI-H358 | 0.146 |
| NCI-H650 | 0.33 |
| PC-3 [JPC-3] | 0.544 |

same assay, conditions: first compound 0.02 µM

| Cell Line | relative viability |
| --- | --- |
| EKVX | 0.324 |
| LC-2-ad | 0.51 |
| NCI-H1944 | 0.23 |
| NCI-H1975 | 0.536 |
| RERF-LC-KJ | 0.863 |
| ABC-1 | 0.514 |
| NCI-H358 | 0.134 |
| NCI-H650 | 0.334 |
| PC-3 [JPC-3] | 0.59 |

same assay, conditions: first compound 0.06325 µM

| Cell Line | relative viability |
| --- | --- |
| EKVX | 0.241 |
| LC-2-ad | 0.454 |
| NCI-H1944 | 0.192 |
| NCI-H1975 | 0.182 |
| RERF-LC-KJ | 0.438 |
| ABC-1 | 0.514 |
| NCI-H358 | 0.112 |
| NCI-H650 | 0.279 |
| PC-3 [JPC-3] | 0.511 |

same assay, conditions: first compound 0.2 µM

| Cell Line | relative viability |
| --- | --- |
| EKVX | 0.197 |
| LC-2-ad | 0.426 |
| NCI-H1944 | 0.181 |
| NCI-H1975 | 0.129 |
| RERF-LC-KJ | 0.452 |
| ABC-1 | 0.481 |
| NCI-H358 | 0.096 |
| NCI-H650 | 0.204 |
| PC-3 [JPC-3] | 0.418 |
